# Measured values published in ChEMBL document CHEMBL1201862, “PubChem BioAssay data set” (2004).
# Calls of active or inactive are those of the source.
# Legend:
# SUMO-activating enzyme [1] = molecular target: T1, SUMO-activating enzyme (Homo sapiens, UniProt Q9UBT2); assay: blockers of UBC9-mediated SUMO conjugation – biochemical, AlphaScreen, SUMOylation inhibitor project, confirmation (AID 2018); assay type: functional
# SUMO-activating enzyme [2] = molecular target: T1, SUMO-activating enzyme; assay: blockers of SAE1/SAE2–UBC9 SUMO transfer – biochemical, HTRF, uHTS, primary screen (AID 2006); assay type: protein-complex assay
# SUMO E1/E2 = SUMO E1/E2 (Homo sapiens, UniProt P63279+Q9UBE0+Q9UBT2); assay: SAR analysis of SUMOylation using HTRF in an in-Vitro dose response assay. [Related pubchem assays (depositor defined):AID2006, AID2011, AID2018, AID2069, AID2658]; assay type: functional
# Chain of SUMO E1/E2 (Q9UBE0 whole entry): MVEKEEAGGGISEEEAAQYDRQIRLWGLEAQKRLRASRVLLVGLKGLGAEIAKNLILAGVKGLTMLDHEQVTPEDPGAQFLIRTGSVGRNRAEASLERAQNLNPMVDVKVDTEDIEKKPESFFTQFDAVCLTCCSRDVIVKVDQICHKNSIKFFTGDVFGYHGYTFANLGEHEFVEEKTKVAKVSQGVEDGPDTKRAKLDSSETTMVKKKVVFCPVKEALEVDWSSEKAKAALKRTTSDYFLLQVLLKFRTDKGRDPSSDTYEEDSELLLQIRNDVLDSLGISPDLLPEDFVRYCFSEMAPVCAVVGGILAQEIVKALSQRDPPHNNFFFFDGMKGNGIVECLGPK
# Chain of SUMO E1/E2 (Q9UBT2 whole entry): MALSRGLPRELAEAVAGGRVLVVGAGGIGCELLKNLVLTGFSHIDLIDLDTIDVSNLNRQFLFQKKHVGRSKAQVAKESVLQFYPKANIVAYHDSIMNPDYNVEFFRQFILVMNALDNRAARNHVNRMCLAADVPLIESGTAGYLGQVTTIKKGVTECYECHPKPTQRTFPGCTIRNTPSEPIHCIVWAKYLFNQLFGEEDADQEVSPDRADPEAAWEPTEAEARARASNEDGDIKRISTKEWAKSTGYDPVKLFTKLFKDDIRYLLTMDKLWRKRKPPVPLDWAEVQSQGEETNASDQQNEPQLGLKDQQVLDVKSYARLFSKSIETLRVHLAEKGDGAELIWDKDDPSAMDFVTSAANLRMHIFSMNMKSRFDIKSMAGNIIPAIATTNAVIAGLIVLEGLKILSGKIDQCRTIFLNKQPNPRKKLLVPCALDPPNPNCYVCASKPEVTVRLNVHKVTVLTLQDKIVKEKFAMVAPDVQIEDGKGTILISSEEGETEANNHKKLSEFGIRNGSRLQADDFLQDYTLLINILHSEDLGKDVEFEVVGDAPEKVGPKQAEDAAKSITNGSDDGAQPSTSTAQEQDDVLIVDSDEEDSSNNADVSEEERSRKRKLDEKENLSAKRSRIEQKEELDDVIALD
# Chain of SUMO E1/E2 (P63279 whole entry): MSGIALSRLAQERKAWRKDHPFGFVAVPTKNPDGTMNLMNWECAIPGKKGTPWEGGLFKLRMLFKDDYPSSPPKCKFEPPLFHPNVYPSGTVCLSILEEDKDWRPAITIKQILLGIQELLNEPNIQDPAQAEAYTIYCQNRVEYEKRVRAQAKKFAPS
# Vero = assay: viability of Vero cells under compound – cytotoxicity control for flavivirus capping enzyme inhibitors (AID 588742); assay type: functional; details: Chlorocebus sabaeus
# Protein RecA = molecular target: T2, Protein RecA (Mycobacterium tuberculosis, UniProt P9WHJ3); assay: Fluorescence Cell-Free Homogeneous Dose Retest to Identify Inhibitors of RecA-Intein Splicing Activity. [Related pubchem assays (depositor defined):AID2097, AID2223, AID489010, AID492950]; assay type: functional
# T2 sequence (P9WHJ3 whole entry): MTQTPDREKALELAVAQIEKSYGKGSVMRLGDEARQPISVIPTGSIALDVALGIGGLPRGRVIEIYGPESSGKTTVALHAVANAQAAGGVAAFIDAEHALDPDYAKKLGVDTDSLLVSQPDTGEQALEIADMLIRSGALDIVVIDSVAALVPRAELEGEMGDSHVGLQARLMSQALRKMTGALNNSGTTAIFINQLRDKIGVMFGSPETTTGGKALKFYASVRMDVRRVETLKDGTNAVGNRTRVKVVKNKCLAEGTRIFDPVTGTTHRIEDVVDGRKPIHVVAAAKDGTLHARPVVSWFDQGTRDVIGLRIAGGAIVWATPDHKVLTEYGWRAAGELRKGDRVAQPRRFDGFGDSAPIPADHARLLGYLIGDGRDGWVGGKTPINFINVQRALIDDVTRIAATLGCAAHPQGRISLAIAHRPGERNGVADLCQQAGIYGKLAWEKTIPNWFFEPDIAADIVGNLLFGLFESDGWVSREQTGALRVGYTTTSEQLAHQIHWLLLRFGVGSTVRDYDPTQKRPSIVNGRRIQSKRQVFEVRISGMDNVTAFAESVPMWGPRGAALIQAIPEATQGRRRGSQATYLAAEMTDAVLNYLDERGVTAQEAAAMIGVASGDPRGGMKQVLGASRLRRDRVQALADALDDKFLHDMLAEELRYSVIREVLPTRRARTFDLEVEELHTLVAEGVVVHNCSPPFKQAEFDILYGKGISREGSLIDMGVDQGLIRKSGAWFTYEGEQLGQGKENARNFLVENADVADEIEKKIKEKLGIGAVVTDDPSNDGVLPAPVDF
# Genome polyprotein = Genome polyprotein (dengue virus type 2, UniProt P29990); assay: flavivirus cap methylation enzyme inhibition – biochemical, confirmation dose response, primary screen (AID 588689); assay type: functional
# Chain of Genome polyprotein (P29990 2492-3391 limits assumed): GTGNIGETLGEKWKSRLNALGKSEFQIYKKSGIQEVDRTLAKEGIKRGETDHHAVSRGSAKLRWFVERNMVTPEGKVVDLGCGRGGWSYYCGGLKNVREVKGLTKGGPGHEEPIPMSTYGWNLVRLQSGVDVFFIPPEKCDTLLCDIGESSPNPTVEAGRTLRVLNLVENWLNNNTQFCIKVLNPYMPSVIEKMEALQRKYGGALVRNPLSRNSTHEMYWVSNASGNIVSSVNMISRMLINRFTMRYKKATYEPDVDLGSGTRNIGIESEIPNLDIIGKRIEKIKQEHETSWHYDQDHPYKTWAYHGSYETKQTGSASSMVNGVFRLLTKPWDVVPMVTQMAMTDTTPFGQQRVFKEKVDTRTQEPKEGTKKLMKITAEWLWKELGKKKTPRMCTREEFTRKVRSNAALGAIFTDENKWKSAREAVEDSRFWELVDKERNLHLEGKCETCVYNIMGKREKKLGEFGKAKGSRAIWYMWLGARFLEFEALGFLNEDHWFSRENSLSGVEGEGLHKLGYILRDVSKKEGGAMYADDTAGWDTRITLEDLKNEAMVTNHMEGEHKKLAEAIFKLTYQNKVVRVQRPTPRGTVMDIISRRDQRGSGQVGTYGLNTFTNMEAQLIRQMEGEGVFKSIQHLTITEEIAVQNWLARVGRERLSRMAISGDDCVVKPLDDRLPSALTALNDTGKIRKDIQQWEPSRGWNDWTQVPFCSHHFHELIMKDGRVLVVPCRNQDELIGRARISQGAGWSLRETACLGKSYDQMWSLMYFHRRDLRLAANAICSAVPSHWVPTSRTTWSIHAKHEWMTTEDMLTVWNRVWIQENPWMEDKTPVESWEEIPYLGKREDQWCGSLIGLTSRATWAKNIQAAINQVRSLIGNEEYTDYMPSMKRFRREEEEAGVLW
# [3] = molecular target: T3, Histone-lysine N-methyltransferase NSD2 (Homo sapiens, UniProt O96028); assay type: biochemical
# T3 sequence (O96028 whole entry): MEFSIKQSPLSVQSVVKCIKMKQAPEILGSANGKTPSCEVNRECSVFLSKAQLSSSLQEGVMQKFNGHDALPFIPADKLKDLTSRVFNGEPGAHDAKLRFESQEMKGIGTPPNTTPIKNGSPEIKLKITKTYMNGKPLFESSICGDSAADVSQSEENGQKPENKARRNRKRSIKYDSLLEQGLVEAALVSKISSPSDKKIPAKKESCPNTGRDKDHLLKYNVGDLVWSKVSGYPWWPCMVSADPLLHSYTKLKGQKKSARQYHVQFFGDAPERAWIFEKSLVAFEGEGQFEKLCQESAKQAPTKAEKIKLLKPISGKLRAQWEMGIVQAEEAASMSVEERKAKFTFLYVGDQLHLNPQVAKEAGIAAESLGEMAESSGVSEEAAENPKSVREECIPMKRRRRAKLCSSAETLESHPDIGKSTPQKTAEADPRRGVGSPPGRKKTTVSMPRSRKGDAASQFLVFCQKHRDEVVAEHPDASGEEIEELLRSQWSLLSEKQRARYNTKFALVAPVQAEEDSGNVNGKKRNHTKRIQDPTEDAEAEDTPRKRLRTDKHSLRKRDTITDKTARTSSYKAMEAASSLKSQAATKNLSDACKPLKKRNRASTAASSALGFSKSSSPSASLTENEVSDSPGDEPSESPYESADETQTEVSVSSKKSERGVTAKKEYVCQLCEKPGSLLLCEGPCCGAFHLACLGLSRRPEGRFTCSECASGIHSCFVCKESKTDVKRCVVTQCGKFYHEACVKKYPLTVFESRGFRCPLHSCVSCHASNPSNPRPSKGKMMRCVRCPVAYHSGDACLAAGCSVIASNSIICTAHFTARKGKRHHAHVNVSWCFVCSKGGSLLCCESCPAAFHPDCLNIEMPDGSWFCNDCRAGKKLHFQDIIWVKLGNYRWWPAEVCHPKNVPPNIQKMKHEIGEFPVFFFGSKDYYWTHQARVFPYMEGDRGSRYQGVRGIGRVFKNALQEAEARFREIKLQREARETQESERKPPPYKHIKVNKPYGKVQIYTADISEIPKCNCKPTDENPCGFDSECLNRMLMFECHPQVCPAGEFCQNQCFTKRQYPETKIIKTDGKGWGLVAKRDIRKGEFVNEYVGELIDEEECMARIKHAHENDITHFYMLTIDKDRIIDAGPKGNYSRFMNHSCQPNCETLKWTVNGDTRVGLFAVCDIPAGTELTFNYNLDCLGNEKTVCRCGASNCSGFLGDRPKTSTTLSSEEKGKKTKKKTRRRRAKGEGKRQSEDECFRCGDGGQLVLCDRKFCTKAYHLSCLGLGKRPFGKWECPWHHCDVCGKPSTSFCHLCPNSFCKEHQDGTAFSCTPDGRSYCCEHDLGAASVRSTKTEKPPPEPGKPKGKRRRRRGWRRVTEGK
# Phospholipase D1 = Phospholipase D1 (Homo sapiens, UniProt Q13393); assay: cellular phospholipase D1 inhibition IC50 – cell-based, dose response (AID 602151); assay type: functional;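 further: cellular PLD1 assay in Calu-1 cells stimulated with PMA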
# Chain of Phospholipase D1 (Q13393 whole entry): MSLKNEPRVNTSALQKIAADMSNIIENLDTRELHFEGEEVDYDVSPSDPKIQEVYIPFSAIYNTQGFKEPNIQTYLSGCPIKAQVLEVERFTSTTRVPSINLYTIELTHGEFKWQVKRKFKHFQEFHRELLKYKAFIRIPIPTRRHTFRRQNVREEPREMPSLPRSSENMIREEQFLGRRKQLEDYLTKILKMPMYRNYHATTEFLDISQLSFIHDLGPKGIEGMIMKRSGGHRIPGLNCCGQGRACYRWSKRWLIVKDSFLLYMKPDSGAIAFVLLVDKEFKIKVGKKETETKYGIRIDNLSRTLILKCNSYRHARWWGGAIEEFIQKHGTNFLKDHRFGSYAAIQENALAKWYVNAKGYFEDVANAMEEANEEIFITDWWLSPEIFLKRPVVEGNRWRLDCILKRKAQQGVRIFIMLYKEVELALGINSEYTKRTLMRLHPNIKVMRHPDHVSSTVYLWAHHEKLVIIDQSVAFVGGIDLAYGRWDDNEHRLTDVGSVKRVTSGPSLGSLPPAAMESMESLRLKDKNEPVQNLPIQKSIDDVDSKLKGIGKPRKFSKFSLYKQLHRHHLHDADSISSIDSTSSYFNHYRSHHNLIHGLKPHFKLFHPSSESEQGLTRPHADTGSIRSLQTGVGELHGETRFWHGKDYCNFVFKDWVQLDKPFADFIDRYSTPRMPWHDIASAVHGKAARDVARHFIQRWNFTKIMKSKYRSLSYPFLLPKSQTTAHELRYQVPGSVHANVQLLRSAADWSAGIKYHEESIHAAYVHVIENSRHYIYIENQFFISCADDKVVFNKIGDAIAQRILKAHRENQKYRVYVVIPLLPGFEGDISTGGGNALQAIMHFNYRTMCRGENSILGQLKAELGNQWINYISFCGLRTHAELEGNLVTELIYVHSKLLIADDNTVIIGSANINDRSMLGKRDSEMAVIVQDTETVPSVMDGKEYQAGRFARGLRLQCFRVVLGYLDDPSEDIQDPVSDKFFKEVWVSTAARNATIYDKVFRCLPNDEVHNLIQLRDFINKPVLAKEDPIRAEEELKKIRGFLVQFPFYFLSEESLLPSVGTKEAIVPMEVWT
# Phospholipase D2 = Phospholipase D2 (Homo sapiens, UniProt O14939); assay: cellular phospholipase D2 inhibition IC50 – cell-based, dose response (AID 602147); assay type: functional;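 further: cellular assay in HEK293 cells overexpressing GFP-tagged PLD2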
# Chain of Phospholipase D2 (O14939 whole entry): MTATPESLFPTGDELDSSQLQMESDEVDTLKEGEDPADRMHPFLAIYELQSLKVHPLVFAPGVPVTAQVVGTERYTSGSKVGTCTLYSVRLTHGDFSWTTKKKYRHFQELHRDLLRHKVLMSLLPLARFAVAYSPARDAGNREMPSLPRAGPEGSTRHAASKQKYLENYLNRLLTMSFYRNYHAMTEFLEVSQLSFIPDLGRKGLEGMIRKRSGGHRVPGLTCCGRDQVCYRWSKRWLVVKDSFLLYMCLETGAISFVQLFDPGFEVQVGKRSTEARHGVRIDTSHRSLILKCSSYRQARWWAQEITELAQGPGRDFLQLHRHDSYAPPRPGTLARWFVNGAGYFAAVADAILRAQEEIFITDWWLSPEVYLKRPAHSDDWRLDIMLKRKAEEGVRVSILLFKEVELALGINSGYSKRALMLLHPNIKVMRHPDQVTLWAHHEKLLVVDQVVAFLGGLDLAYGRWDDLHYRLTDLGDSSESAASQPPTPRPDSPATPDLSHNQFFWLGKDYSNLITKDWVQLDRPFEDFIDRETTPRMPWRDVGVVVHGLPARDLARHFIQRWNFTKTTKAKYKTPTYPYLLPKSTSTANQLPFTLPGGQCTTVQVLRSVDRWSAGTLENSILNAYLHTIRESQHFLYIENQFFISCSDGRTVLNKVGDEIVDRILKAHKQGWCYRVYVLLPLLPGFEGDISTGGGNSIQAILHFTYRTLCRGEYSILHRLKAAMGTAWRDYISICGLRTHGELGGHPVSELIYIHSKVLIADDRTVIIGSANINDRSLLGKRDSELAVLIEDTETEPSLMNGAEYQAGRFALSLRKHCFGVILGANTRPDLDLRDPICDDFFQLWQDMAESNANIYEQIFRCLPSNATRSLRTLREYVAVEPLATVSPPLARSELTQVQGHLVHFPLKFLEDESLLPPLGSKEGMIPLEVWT
# T1 sequence (Q9UBE0 whole entry): as the sequence (Q9UBE0 whole entry) above
# T1 sequence (Q9UBT2 whole entry): as the sequence (Q9UBT2 whole entry) above
SMILES,IC50 (SUMO-activating enzyme [1]),IC50 (SUMO-activating enzyme [2]),IC50 (SUMO E1/E2),CC50 (Vero),EC50 (Protein RecA),IC50 (Genome polyprotein),AC50 [3],IC50 (Phospholipase D1),IC50 (Phospholipase D2)
CCCCn1c(NC(=O)c2ccc(Br)o2)c(S(=O)(=O)c2ccccc2)c2nc3ccccc3nc21,2.8 µM (active),10.6 µM (active),20.3 µM (active),> 40 µM (active),108 µM (inconclusive),75.4 µM (active),7.79 µM (active),–,–
O=C(NCCN1CCC2(CC1)C(=O)NCN2c1ccccc1)c1cc2cc(F)ccc2[nH]1,–,–,–,–,–,–,–,100 nM (active),70 nM (active)
C[C@@H](CN1CCC(n2c(=O)[nH]c3cc(Br)ccc32)CC1)NC(=O)c1ccc(F)cc1,–,–,–,–,–,–,–,4 nM (active),340 nM (active)
